Test [1] concerns the target Tyrosine-protein kinase Fyn (Homo sapiens) (UniProt P06241). Description: Selectivity interaction (LanthaScreen Eu Kinase Binding Assay) EUB0001632a FYN. The settings on record: at 10 µM. Background: TR-FRET usually uses a lanthanide donor and a delayed reading to cut background.
Test [2] deals with Mitogen-activated protein kinase kinase kinase kinase 1 (Homo sapiens) (UniProt Q92918). Description: Selectivity interaction (LanthaScreen Eu Kinase Binding Assay) EUB0001632a MAP4K1. Conditions: at 10 µM.
Chain of Mitogen-activated protein kinase kinase kinase kinase 1 (Homo sapiens) (Q92918 whole entry, looked up): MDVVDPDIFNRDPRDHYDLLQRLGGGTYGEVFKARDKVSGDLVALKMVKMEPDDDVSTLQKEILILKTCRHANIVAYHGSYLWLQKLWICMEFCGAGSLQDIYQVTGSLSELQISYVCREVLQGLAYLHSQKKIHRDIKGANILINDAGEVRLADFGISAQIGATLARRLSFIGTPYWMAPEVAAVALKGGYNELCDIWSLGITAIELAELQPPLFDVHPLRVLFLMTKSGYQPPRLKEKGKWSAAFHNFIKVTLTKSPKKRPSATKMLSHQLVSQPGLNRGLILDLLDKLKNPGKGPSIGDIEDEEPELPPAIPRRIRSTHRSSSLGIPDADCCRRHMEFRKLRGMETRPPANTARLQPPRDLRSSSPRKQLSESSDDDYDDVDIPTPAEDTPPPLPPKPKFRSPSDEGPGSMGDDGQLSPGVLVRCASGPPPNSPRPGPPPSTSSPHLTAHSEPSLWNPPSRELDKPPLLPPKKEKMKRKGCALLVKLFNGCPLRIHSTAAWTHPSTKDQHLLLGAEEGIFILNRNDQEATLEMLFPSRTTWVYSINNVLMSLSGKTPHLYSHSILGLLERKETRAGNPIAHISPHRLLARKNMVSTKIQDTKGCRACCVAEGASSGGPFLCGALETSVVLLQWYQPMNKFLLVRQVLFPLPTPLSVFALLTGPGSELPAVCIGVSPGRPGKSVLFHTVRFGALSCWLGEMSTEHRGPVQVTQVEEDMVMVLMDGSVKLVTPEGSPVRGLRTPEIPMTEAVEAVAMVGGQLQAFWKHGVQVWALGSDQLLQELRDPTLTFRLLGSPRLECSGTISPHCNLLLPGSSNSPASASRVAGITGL
For test [3], the target named is Receptor tyrosine-protein kinase erbB-3 (Homo sapiens) (UniProt P21860). Description: Selectivity interaction (KinomeScan (DiscoverX)) EUB0000595a ERBB3. The settings on record: at 10 µM.
Chain of Receptor tyrosine-protein kinase erbB-3 (Homo sapiens) (P21860 whole entry): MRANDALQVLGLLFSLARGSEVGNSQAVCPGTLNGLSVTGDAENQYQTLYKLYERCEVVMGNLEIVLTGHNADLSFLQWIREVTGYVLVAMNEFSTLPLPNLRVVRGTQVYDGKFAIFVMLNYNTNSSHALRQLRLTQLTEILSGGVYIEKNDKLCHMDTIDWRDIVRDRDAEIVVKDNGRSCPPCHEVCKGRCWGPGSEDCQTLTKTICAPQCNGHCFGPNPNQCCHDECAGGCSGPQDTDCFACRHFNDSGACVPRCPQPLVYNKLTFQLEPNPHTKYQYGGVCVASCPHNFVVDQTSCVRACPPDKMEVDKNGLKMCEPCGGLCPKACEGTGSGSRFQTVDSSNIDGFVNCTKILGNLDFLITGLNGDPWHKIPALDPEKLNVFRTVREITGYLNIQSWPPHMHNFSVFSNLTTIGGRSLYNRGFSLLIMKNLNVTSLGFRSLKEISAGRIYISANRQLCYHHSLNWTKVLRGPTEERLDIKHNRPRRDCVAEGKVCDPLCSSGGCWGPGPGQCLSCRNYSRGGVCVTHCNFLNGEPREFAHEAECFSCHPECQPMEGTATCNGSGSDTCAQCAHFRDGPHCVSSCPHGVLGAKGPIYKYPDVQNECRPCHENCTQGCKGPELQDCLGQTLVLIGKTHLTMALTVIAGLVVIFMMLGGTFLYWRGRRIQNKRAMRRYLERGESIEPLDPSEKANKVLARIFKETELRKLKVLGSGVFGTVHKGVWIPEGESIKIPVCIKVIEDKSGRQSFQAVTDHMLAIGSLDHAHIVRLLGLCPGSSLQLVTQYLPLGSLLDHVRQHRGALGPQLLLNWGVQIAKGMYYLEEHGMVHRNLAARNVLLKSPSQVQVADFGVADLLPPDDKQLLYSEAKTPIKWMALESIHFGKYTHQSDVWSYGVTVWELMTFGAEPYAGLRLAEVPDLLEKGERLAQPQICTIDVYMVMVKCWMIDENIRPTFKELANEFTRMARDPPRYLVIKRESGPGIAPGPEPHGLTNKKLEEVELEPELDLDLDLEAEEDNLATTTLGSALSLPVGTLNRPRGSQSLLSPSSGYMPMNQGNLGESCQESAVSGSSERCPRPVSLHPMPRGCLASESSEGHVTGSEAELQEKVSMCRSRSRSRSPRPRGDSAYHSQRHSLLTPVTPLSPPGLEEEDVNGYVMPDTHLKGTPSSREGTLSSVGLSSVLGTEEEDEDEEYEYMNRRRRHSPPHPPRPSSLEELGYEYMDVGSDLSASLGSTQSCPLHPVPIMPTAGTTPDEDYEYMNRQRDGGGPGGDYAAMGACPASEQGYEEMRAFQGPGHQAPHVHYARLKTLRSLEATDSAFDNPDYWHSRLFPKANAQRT
The nature of test [4]: Selectivity interaction (KinomeScan (DiscoverX)) EUB0000595a PKNB. Conditions: at 10 µM.
Test [5] has as its target Non-receptor tyrosine-protein kinase TYK2 (Homo sapiens, UniProt P29597). Description: Selectivity interaction (KinomeScan (DiscoverX)) EUB0000595a TYK2. Conditions: at 10 µM.
The target in test [6] is Tyrosine-protein kinase JAK1 (Homo sapiens, UniProt P23458). As to the kind of experiment: Selectivity interaction (ActivX KiNativ screen (ex vivo kinase selectivity in human PBMCs)) EUB0001619a JAK1. It counts as cell-based. Conditions: PBMC, at 1 µM.
The target of test [7] is Mitogen-activated protein kinase 3 (Homo sapiens, UniProt P27361). As to the kind of experiment: Selectivity interaction (KinomeScan (DiscoverX)) EUB0000666a MAPK3. The settings on record: at 10 µM.
The target in test [8] is Serine/threonine-protein kinase WNK2 (Homo sapiens) (UniProt Q9Y3S1). As to the kind of experiment: Selectivity interaction (Kinase panel (Invitrogen)) EUB0000639a WNK2. Conditions: at 200 nM.
Chain of Serine/threonine-protein kinase WNK2 (Homo sapiens) (Q9Y3S1 whole entry): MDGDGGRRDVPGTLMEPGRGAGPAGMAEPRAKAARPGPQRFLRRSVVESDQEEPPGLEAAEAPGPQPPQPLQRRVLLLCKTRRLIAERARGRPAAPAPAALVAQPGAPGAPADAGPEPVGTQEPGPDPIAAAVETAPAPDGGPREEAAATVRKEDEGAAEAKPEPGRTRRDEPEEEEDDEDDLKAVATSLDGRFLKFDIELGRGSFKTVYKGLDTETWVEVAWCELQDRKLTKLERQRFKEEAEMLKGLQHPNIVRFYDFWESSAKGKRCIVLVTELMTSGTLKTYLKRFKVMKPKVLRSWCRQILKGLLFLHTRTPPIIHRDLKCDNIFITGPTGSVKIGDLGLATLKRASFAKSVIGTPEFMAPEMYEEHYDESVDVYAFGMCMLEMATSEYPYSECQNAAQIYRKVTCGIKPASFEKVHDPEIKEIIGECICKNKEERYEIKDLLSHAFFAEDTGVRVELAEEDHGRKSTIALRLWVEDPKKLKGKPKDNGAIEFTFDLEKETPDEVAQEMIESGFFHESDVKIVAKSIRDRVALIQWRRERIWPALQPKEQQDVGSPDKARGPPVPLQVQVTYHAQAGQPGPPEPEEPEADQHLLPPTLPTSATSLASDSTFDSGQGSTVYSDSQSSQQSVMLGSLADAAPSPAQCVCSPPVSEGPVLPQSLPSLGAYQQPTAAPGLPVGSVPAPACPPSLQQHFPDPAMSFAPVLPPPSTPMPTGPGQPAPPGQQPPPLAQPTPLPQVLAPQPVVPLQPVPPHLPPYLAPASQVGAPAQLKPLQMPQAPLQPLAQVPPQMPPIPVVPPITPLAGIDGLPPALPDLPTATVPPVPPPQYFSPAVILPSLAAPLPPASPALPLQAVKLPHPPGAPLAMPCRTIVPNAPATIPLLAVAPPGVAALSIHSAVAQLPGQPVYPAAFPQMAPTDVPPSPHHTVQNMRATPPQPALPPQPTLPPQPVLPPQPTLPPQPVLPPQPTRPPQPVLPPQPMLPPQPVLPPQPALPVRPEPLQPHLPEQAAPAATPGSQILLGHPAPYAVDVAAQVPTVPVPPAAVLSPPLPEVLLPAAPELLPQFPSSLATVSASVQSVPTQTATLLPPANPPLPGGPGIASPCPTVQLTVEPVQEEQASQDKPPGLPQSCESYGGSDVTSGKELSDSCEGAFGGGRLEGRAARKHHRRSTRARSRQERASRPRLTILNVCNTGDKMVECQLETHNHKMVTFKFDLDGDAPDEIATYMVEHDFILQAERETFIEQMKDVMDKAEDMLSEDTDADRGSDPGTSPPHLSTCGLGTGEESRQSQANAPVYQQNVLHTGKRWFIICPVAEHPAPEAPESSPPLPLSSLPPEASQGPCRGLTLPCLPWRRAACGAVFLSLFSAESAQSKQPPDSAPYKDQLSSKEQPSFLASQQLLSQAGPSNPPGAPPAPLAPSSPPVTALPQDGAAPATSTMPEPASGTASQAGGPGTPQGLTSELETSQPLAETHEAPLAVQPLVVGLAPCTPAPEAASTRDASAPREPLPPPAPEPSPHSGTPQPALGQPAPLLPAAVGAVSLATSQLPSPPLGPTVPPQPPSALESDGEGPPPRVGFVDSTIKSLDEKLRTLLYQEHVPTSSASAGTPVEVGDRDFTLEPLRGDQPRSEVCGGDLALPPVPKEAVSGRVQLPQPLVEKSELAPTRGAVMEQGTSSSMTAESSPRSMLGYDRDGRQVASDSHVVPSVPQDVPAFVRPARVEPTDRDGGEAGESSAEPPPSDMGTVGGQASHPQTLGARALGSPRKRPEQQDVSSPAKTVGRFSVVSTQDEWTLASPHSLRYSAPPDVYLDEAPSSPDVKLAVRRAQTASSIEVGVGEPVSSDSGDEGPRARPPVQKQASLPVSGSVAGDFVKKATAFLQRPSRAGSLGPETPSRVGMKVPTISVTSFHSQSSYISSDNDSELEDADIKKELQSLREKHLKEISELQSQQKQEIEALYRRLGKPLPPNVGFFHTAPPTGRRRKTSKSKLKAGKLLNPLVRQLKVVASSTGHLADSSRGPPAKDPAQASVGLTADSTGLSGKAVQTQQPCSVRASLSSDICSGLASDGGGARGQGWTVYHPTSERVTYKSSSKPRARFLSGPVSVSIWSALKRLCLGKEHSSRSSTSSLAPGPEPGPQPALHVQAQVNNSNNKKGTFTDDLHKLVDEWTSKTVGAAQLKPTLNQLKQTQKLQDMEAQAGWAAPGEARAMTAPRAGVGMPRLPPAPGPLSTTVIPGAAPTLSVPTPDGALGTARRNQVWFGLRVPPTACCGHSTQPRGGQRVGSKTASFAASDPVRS
The target in test [9] is T1, Eukaryotic elongation factor 2 kinase (Homo sapiens) (UniProt O00418).
T1 sequence (whole entry): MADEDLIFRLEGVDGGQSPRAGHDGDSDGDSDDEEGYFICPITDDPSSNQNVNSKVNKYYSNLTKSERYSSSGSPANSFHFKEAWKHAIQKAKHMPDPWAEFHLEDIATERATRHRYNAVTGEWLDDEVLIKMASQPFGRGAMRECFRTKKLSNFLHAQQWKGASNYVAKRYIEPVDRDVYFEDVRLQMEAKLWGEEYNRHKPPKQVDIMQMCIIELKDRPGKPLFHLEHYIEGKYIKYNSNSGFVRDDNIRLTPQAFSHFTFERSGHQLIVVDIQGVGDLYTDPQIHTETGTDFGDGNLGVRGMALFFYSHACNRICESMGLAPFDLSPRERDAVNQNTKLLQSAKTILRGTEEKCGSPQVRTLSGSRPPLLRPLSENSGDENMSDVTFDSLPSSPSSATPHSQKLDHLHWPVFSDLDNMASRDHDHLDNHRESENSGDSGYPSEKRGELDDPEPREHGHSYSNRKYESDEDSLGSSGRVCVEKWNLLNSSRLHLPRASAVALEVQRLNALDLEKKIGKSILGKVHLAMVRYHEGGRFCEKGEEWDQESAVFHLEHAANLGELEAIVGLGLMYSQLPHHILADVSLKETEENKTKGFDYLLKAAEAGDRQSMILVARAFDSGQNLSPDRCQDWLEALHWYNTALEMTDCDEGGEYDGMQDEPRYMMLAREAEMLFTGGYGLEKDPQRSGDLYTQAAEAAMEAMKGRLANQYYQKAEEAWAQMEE
Description: Selectivity interaction (Kinase panel (literature)) EUB0001199aCl EEF2K. The settings on record: at 1 µM.

Test [10] concerns the target Dual specificity tyrosine-phosphorylation-regulated kinase 1B (Homo sapiens, UniProt Q9Y463). As to the kind of experiment: Selectivity interaction (KinomeScan (DiscoverX)) EUB0001049a DYRK1B. The settings on record: at 1 µM.
Test [11] has as its target Proto-oncogene tyrosine-protein kinase Src (Homo sapiens, UniProt P12931). As to the kind of experiment: Selectivity interaction (KinomeScan (DiscoverX)) EUB0001868a SRC. Conditions: at 1 µM.
Test [12] deals with T2, Tyrosine-protein kinase JAK3 (Homo sapiens) (UniProt P52333).
T2 sequence (whole entry): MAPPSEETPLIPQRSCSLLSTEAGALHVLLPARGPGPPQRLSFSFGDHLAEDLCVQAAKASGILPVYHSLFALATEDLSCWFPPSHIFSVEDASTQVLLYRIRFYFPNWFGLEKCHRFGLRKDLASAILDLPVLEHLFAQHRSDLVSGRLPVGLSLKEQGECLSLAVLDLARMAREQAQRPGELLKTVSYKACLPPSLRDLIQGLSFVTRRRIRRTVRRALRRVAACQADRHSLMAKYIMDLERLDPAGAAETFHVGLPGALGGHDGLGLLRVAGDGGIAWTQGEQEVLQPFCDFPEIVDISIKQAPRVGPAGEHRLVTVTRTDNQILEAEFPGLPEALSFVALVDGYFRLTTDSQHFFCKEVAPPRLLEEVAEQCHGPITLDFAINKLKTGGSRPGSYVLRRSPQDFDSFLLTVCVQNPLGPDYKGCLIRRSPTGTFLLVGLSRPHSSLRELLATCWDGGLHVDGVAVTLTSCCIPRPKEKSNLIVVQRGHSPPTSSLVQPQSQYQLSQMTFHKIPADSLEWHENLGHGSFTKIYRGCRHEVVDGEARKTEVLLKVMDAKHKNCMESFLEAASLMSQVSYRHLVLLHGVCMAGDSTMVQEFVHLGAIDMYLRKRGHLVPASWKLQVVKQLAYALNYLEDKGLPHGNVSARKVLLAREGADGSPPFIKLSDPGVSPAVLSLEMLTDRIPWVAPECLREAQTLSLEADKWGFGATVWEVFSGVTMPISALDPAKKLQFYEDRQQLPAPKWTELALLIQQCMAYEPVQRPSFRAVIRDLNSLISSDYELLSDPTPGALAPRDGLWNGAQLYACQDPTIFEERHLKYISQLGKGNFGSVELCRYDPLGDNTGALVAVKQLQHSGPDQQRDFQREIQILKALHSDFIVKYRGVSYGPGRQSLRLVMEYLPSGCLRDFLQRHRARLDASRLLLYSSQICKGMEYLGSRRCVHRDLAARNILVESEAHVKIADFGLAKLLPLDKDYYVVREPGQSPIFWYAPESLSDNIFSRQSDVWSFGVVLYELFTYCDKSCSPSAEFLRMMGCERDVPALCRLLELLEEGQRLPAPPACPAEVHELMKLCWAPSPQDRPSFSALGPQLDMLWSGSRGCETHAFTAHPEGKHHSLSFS
Description: Selectivity interaction (KinomeScan (DiscoverX)) EUB0000229b JAK3. The settings on record: at 10 µM.

Chain of Dual specificity tyrosine-phosphorylation-regulated kinase 1B (Q9Y463 whole entry, looked up): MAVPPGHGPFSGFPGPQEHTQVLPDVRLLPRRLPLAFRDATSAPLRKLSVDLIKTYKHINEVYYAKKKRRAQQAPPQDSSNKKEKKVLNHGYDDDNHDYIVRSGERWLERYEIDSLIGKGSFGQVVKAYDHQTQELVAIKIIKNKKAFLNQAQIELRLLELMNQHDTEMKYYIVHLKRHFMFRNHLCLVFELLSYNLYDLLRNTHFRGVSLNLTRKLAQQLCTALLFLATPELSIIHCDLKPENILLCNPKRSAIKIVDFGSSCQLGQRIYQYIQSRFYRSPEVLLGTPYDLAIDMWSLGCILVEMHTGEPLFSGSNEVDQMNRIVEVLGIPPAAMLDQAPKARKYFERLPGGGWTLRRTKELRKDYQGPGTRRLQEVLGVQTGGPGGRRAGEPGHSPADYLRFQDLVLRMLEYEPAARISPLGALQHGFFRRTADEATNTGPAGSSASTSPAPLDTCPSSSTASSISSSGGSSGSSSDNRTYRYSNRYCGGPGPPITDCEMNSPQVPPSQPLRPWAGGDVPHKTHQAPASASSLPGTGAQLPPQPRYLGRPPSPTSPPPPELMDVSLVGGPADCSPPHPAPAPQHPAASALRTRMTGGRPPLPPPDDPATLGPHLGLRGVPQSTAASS

Turning to `Cn1cc(-n2cnc3c(NCc4nc5cc(Cl)c(Cl)cc5[nH]4)nc(N4CCOCC4)nc32)cn1`, the % of inhibition in test [1] is -11.6%; in test [2] it was -18.9%.
Turning to `COCC(=O)NC/C=C/c1ccc2ncnc(Nc3ccc(Oc4ccc(C)nc4)c(C)c3)c2c1` [CP-724714], the % of control in [3] was determined as 20%; in test [4], 23%; in test [5] it was 100%.
Take `N#Cc1cccc(-c2c[nH]c3ncnc(N4CCOCC4)c23)c1`: in [6], the % of inhibition was -4%.
In [7], `O=C(NOC[C@H](O)CO)c1ccc(F)c(F)c1Nc1ccc(I)cc1F` showed a % of control of 86%.
With `CC[C@@H]1[C@H](F)C(=O)N[C@@H]1COc1nccc2cc(C(N)=O)c(OC)cc12` [ZIMLOVISERTIB], in [8], the % of inhibition is 3.33%.
As to `CN1Cc2nccc(-c3cn(C)nc3-c3ccc(F)cc3)c2C1=O`, the % of inhibition in test [9] was -5%.
In test [10], `COc1cc(Nc2nc(C)cc(-c3cnn4nc(OC)ccc34)n2)cc(C(F)(F)F)c1` came in with a % of control of 100%.
In the case of `Cc1cc(-c2ccnc(Nc3cnn(C)c3)n2)ccc1CNC(=O)N1CC(OC(C)C)C1`, the % of control in test [11] was found to be 31%.
In turn, `COc1cc(N(C)c2ccnc3ccc(C(F)(F)F)cc23)cc(OC)c1OC` returned a % binding in [12] of 99%.

The values are drawn from ChEMBL document CHEMBL5465560, “Selectivity Literature for EUbOPEN Chemogenomic Library” (2024).
